Biological target: Sodium-dependent dopamine transporter (Rattus norvegicus, UniProt P23977)
Sequence (P23977 whole entry): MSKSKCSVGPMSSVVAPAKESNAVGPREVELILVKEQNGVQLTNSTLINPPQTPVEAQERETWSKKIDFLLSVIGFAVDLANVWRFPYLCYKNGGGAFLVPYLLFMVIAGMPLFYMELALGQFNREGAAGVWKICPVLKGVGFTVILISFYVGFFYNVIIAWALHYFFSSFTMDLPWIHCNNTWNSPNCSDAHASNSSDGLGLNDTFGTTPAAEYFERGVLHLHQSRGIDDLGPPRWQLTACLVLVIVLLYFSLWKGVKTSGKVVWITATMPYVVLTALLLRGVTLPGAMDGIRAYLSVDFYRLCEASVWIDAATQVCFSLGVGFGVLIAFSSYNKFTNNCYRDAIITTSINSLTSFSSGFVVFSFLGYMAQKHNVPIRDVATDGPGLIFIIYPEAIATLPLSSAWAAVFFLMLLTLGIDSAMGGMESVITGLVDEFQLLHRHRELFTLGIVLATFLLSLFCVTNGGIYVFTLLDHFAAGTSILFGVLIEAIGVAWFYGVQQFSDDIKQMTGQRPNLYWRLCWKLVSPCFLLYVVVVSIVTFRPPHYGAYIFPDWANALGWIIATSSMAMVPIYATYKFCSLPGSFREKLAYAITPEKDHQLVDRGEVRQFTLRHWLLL

Row | Structure (SMILES) | Ki [nM]
1 | COC(=O)[C@H]1[C@@H](c2ccc(C)cc2)C[C@@H]2CC[C@H]1N2C/C=C/I | 18
2 | Cc1ccc(Sc2ccccc2CN(C)C)c(N)c1 [2-(2-Dimethylaminomethyl-phenylsulfanyl)-5-methyl-phenylamine] | 1000
